Experimental data reported in US7163960B2, “Treatment and prevention of inflammatory disorders” (Monsanto Technology L.L.C., priority 2002, dated 2007).
Entries after “also recorded” stand apart in the source; their conditions may differ. Marks after values point to notes of the source that are not given here.

Columns and labels:
prostaglandin E2 (PGE2) = assay: PGE2 synthesis in LPS-stimulated whole blood; assay type: in vivo, human; details: for PGE2 synthesis in LPS-stimulated whole blood: mean ± SD
Protocol: (§1) Following a 3-week run-in period, subjects ingested either ALA, SDA, EPA supplied as ethyl esters in capsules. Intakes were 0.75 g/day for 3 weeks followed by 1.5 g/day for the subsequent 3 weeks.
(§2) Blood (4 mL) was added to heparinised tubes, bacterial lipopolysaccharide (LPS) was added (200 ng/mL), and the mixture was incubated at 37° C., 5% CO2, for 24 h. Plasma was collected and assayed for prostaglandin E2 (PGE2) by radioimmunoassay (RIA), interleukin-1β (IL-1β) and tumor necrosis factor-α (TNF-α) by ELISA, as described in Mantzioris et al., supra.

IL-1β = IL-1β synthesis in LPS-treated whole blood; assay type: in vivo, human; details: for IL-1β synthesis in LPS-treated whole blood: mean ± SD
Protocol: as §1, §2

[1] = Fatty acid analysis of blood cell phospholipids and plasma lipid fractions after ingestion of test fatty acids; assay type: in vivo, human; details: for DHA (% of total fatty acids), Erythrocyte phospholipid / DHA (% of total fatty acids), Plasma phospholipid / DPA (% of total fatty acids), Erythrocyte phospholipid / DPA (% of total fatty acids), Plasma phospholipid / EPA (% of total fatty acids), Monocyte / EPA (% of total fatty acids), Plasma CE / EPA (% of total fatty acids), Plasma Phospholipid / EPA (% of total fatty acids), Plasma TG / EPA (% of total fatty acids), Platelet / EPA (% of total fatty acids), Red Blood: both, human, in vivo; for Effect on tissue levels of DHA (FIG. 1): erythrocytes and plasma phospholipids
Description: (§3) 45 males and post-menopausal female—19–65 years of age, normolipidemic, and with a body mass index (BMI) in the range 20 to 30, were recruited. Exclusion criteria included bleeding disorders, hypertension, inflammatory disorders, active gastrointestinal diseases, chronic use of low dose aspirin, consumption of restaurant or takeaway evening meals more than twice per week, use of dietary supplements rich in n-3 or n-6 fatty acids, habitual consumption of more than 1 fish meal per month, and plasma phospholipid EPA+DHA levels>7.9% of total fatty acids (level achieved in the study group was 4.9±1.0% of total fatty acids).
as §1
At each visit, 36 mL of blood was taken by venepuncture after an overnight fast. Blood was aliquoted into various tubes for the following procedures.
Blood (20 mL) was added to tubes containing 4 mL 4.5% EDTA in water and 4 mL—6% dextran in normal saline, pH 7.0. Erythrocytes were allowed to sediment under gravity at 37° C. for 30 min. The leucocyte-rich plasma was layered onto LYMPHOPREP, density 1.077 (Nycomed Pharma, Oslo) and centrifuged at 110 g for 10 min to separate leucocytes from the platelets, which were removed. The gradient was further centrifuged at 200 g for 20 min to separate the neutrophils from mononuclear cells, which were removed.
Samples were processed for fatty acid analysis as described in Mantzioris et al., Am. J. Clin. Nutr., 72:42–8 (2000). Plasma, washed platelet and mononuclear cell pellets were stored at −80° C. Erythrocyte pellets were treated fresh with chloroform:isopropanol (2:1) and the lipid extracts stored at 4° C. Plasma, platelet and mononuclear cell pellets were extracted with chloroform:methanol. The cellular and plasma lipid extracts were fractionated by thin-layer chromatography. For the cellular extracts, the phospholipid fraction was retained and for the plasma extracts, the phospholipid, cholesterol ester, and triglyceride fractions were retained. These were transesterified by methanolysis (1% H2SO4 in methanol at 70° C. for 3 h). Fatty acid methyl esters were separated and quantified with a HEWLETT-PACKARD 6890 gas chromatograph equipped with a 50 m capillary column coated with BPX-70 (0.25 μm film thickness; SGE Pty Ltd, Victoria, Australia) (see Mantzioris et al., supra). Fatty acid standards were obtained from NuChek Prep Inc. (Elysian, Minn.) and included stearidonic acid obtained from Sigma Aldrich Pty Ltd. (Castle Hill, NSW, Australia). All organic solvents contained butylated hydroxy anisole (0.005%) as an antioxidant.

TNF-α = TNF-α synthesis in LPS-treated whole blood; assay type: in vivo, human; details: for TNF-α synthesis in LPS-treated whole blood: mean ± SD
Protocol: as §1, §2

C-reactive protein = assay: Clinical study of SDA on down-regulating C-reactive protein; assay type: in vivo, human; details: Example 3, described in present tense; about 0.75 then 1.5 g/day
Description: as §3, with “Approximately 35–50” for “45”, “female -19–65” for “female—19–65”, “are” for “were”, “include” for “included”, “acids. Subjects are randomly allocated to one” for “acids (level achieved in the study group was 4.9±1.0%”, “three groups, designated ALA, SDA, and EPA. […]” for “total fatty acids).”
C-reactive protein (Hs-CRP) in plasma can be analyzed by use of latex-enhanced immunonephelometric assay on a BN II analyzer (Rifai et al. Clinical efficacy of an automated high-sensitivity C-reactive protein assay. Clin. Chem […];45:2136). […]
Subjects are weighed at each visit for change in weight during the trial. […] Fatty acids are analyzed between dietary groups in EPA concentration in erythrocyte or plasma phospholipids. The effect of ingestion of EPA, ALA or SDA at 0.75 g/day (weeks 0 to 3) or 1.5 g/day (weeks 3 to 6) is determined with respect to EPA concentration in the phospholipid fractions of erythrocytes and plasma. Effects on DPA concentration in the phospholipid fractions of erythrocytes and plasma are also analyzed.

leukotrienes = details: U.S. Pat. No. 5,158,975; cited from earlier work
[2] = Week 3 (after 0.75 g/day for 3 weeks)
[3] = Week 6 (after 1.5 g/day for 3 weeks)
[4] = Week −3 (start of run-in, before dosing)

CC/C=C\C/C=C\C/C=C\C/C=C\C/C=C\CCCC(=O)O [EPA, eicosapentaenoic acid]
PGE2 synthesis in LPS-stimulated whole blood (prostaglandin E2 (PGE2); Week 0 (baseline)): 4.21 ± 1.59 ng/mL | PGE2 synthesis in LPS-stimulated whole blood (prostaglandin E2 (PGE2); [2]): 5.05 ± 2.16 ng/mL | PGE2 synthesis in LPS-stimulated whole blood (prostaglandin E2 (PGE2); [3]): 4.46 ± 1.47 ng/mL | PGE2 synthesis in LPS-stimulated whole blood (prostaglandin E2 (PGE2); [4]): 3.78 ± 1.95^1,2 ng/mL | Effect on LPS-stimulated PGE2 synthesis (prostaglandin E2 (PGE2); overall, either dose): no effect | IL-1β synthesis in LPS-treated whole blood (IL-1β; Week 0 (baseline)): 92.0 ± 25.4^a ng/mL | IL-1β synthesis in LPS-treated whole blood (IL-1β; [2]): 75.3 ± 27.6^b ng/mL | IL-1β synthesis in LPS-treated whole blood (IL-1β; [3]): 73.5 ± 16.4^b ng/mL | IL-1β synthesis in LPS-treated whole blood (IL-1β; [4]): 93.1 ± 26.8^a1,b ng/mL | Effect on DPA concentration in the phospholipid fractions of erythrocytes and plasma ([1]; 0.75 g/day): significantly increased | Effect on EPA concentration in the phospholipid fractions of erythrocytes and plasma ([1]; 0.75 g/day (weeks 0 to 3)): significantly increased | Effect on DPA concentration in the phospholipid fractions of erythrocytes and plasma ([1]; 1.5 g/day): significantly increased; also recorded: elevated | Effect on EPA concentration in the phospholipid fractions of erythrocytes and plasma ([1]; 1.5 g/day (weeks 3 to 6)): significantly increased; also recorded: elevated | DHA (% of total fatty acids), Erythrocyte phospholipid ([1]; 0 week): 4.62 ± 0.69^b % of total fatty acids | DHA (% of total fatty acids), Plasma phospholipid ([1]; 0 weeks): 3.75 ± 0.77^ab % of total fatty acids | DPA (% of total fatty acids), Erythrocyte phospholipid ([1]; 0 weeks): 2.81 ± 0.24^a % of total fatty acids | DPA (% of total fatty acids), Plasma phospholipid ([1]; 0 weeks): 1.34 ± 0.22^a % of total fatty acids | EPA (% of total fatty acids), Monocyte ([1]; 0 weeks): 0.52 (0.11)a % of total fatty acids | EPA (% of total fatty acids), Plasma CE ([1]; 0 weeks): 1.02 (0.20)a % of total fatty acids | EPA (% of total fatty acids), Plasma Phospholipid ([1]; 0 weeks): 1.04 (0.23)a % of total fatty acids | EPA (% of total fatty acids), Plasma TG ([1]; 0 weeks): 0.27 (0.09)a % of total fatty acids | EPA (% of total fatty acids), Platelet ([1]; 0 weeks): 0.45 (0.09)a % of total fatty acids | EPA (% of total fatty acids), Red Blood ([1]; 0 weeks): 0.81 (0.14)^a % of total fatty acids | EPA (% of total fatty acids), Monocyte ([1]; 3 weeks): 1.38 (0.35)b1 % of total fatty acids | EPA (% of total fatty acids), Plasma CE ([1]; 3 weeks): 2.95 (0.74)b1 % of total fatty acids | EPA (% of total fatty acids), Plasma Phospholipid ([1]; 3 weeks): 2.71 (0.71)b1 % of total fatty acids | EPA (% of total fatty acids), Plasma TG ([1]; 3 weeks): 0.73 (0.20)b1 % of total fatty acids | EPA (% of total fatty acids), Platelet ([1]; 3 weeks): 1.08 (0.26)b1 % of total fatty acids | EPA (% of total fatty acids), Red Blood ([1]; 3 weeks): 1.60 (0.31)^b1 % of total fatty acids | EPA (% of total fatty acids), Monocyte ([1]; 6 weeks): 2.25 (0.74)c1 % of total fatty acids | EPA (% of total fatty acids), Plasma CE ([1]; 6 weeks): 4.53 (1.31)c1 % of total fatty acids | EPA (% of total fatty acids), Plasma Phospholipid ([1]; 6 weeks): 4.48 (1.35)c1 % of total fatty acids | EPA (% of total fatty acids), Plasma TG ([1]; 6 weeks): 1.23 (0.47)c1 % of total fatty acids | EPA (% of total fatty acids), Platelet ([1]; 6 weeks): 1.68 (0.43)c1 % of total fatty acids | EPA (% of total fatty acids), Red Blood ([1]; 6 weeks): 2.56 (0.65)^c1 % of total fatty acids | DHA (% of total fatty acids), Erythrocyte phospholipid ([1]; -3 week): 5.02 ± 0.89^a1,2 % of total fatty acids | DHA (% of total fatty acids), Plasma phospholipid ([1]; -3 weeks): 3.97 ± 1.06^a % of total fatty acids | DPA (% of total fatty acids), Erythrocyte phospholipid ([1]; -3 weeks): 2.92 ± 0.45^a1,2 % of total fatty acids | DPA (% of total fatty acids), Plasma phospholipid ([1]; -3 weeks): 1.31 ± 0.29^a % of total fatty acids | EPA (% of total fatty acids), Monocyte ([1]; -3 weeks): 0.66 (0.32)^a % of total fatty acids | EPA (% of total fatty acids), Plasma CE ([1]; -3 weeks): 1.03 (0.34)^a % of total fatty acids | EPA (% of total fatty acids), Plasma Phospholipid ([1]; -3 weeks): 1.10 (0.40)^a % of total fatty acids | EPA (% of total fatty acids), Plasma TG ([1]; -3 weeks): 0.31 (0.15)^a % of total fatty acids | EPA (% of total fatty acids), Platelet ([1]; -3 weeks): 0.44 (0.12)^a % of total fatty acids | EPA (% of total fatty acids), Red Blood ([1]; -3 weeks): 0.85 (0.16)^a % of total fatty acids | Effect on tissue levels of DHA (FIG. 1) ([1]; 1.5 g/day): decreased | Change in erythrocyte DHA ([1]; higher dose (1.5 g/day)): slight, but statistically significant decrease | TNF-α synthesis in LPS-treated whole blood (TNF-α; Week 0 (baseline)): 38.9 ± 12.5^a ng/mL | TNF-α synthesis in LPS-treated whole blood (TNF-α; [2]): 32.0 ± 11.8^ab ng/mL | TNF-α synthesis in LPS-treated whole blood (TNF-α; [3]): 27.6 ± 10.6^b ng/mL | TNF-α synthesis in LPS-treated whole blood (TNF-α; [4]): 36.6 ± 16.53^a1,2 ng/mL

CC/C=C\C/C=C\C/C=C\C/C=C\CCCCC(=O)O [SDA, stearidonic acid]
Effect on LPS-stimulated PGE2 synthesis (prostaglandin E2 (PGE2); 1.5 g/day): no change | Effect on LPS-stimulated PGE2 synthesis (prostaglandin E2 (PGE2); Visit 3, following ingestion of 0.75 g): statistically significant increases | PGE2 synthesis in LPS-stimulated whole blood (prostaglandin E2 (PGE2); Week 0 (baseline)): *4.64 ± 1.09^a ng/mL | PGE2 synthesis in LPS-stimulated whole blood (prostaglandin E2 (PGE2); [2]): 6.26 ± 2.56^b ng/mL | PGE2 synthesis in LPS-stimulated whole blood (prostaglandin E2 (PGE2); [3]): 4.61 ± 0.95^a ng/mL | PGE2 synthesis in LPS-stimulated whole blood (prostaglandin E2 (PGE2); [4]): 3.97 ± 1.48^a ng/mL | Effect on LPS-stimulated IL-1β synthesis (IL-1β; 0.75 g/day or 1.5 g/day (either dose)): significantly decreased | IL-1β synthesis in LPS-treated whole blood (IL-1β; Week 0 (baseline)): 94.7 ± 29.3^b ng/mL | IL-1β synthesis in LPS-treated whole blood (IL-1β; [2]): 81.4 ± 21.9^c ng/mL | IL-1β synthesis in LPS-treated whole blood (IL-1β; [3]): 77.8 ± 26.4^c ng/mL | IL-1β synthesis in LPS-treated whole blood (IL-1β; [4]): 106.9 ± 33.0^a ng/mL | Effect of SDA intake on C-reactive protein (C-reactive protein): decrease in C-reactive protein | Effect on biosynthesis of leukotrienes (leukotrienes): inhibit biosynthesis of leukotrienes | Effect on EPA concentration in the phospholipid fractions of erythrocytes and plasma ([1]; 0.75 g/day (weeks 0 to 3)): significantly increased | Effect on DPA concentration in the phospholipid fractions of erythrocytes and plasma ([1]; 1.5 g/day): significantly increased; also recorded: elevated | Effect on EPA concentration in the phospholipid fractions of erythrocytes and plasma ([1]; 1.5 g/day (weeks 3 to 6)): significantly increased; also recorded: elevated | Effect on tissue levels of DHA (FIG. 1) ([1]; 1.5 g/day): not DHA | Efficiency relative to ALA at elevating tissue EPA levels ([1]; in humans): about four times more efficient than ALA | Effect on LPS-stimulated TNF synthesis (TNF-α; 1.5 g/day): statistically significant decreases | TNF-α synthesis in LPS-treated whole blood (TNF-α; Week 0 (baseline)): 43.7 ± 18.7^a ng/mL | TNF-α synthesis in LPS-treated whole blood (TNF-α; [2]): 37.7 ± 14.2^ab ng/mL | TNF-α synthesis in LPS-treated whole blood (TNF-α; [3]): 34.1 ± 12.0^b ng/mL | TNF-α synthesis in LPS-treated whole blood (TNF-α; [4]): 37.6 ± 14.6^ab ng/mL
